{"source": "patent US20040253277A1", "about": "“Anaesthetic formulations of propofol” (priority 2001, published 2004)", "key": {"[1]": {"settings": "in vivo; cited from earlier work"}, "physchem": {"assay": "physchem", "settings": "water, thermodynamic from solid", "procedure": "Analyses were performed using the Perkin Elmer Lambda 5 UV/V is Spectrophotometer.\nTwo sets of standards were prepared by serial dilution of:\n1. 10% poloxamer P407/1% Propofol solution in water.\n2. 1% Propofol solution in ethanol (EtOH).\nDilutions were performed with water and EtOH respectively. The standards were further diluted one hundred fold prior to measurement of their UV absorption spectra recorded."}}, "data": [{"smiles": "CC(C)c1cccc(C(C)C)c1O", "note": "[Propofol, 2,6-bis(1-methylethyl)phenol; 2,6-diisopropylphenol]", "values": [{"measurement": "dose required for long term infusion for anaesthesia", "setting": "[1]", "result": "4-12 mg/kg per hour"}, {"measurement": "time of maximum effect after dosing", "setting": "[1]", "result": "within about one minute"}, {"measurement": "solubility thermodynamic", "setting": "physchem", "result": "~1000", "unit": "µM"}]}]}
